These results are taken from patent US20250319025A9, “COMPOSITIONS COMPRISING MODIFIED PHOSPHOLIPIDS AND USES THEREOF” (priority 2021, published 2025).

The nature of data set [1]: Phase transition temperature of acyl chain-modified phospholipids. The data set is classed as physicochemical.
Data set [2] in a line: Drug loading of payloads in liposomes (thin-film hydration; quantitated after liposome disruption). Type of data set: physicochemical.
The nature of data set [3]: In vitro cumulative drug release by dialysis at 37° C. Type of data set: physicochemical.
The nature of data set [4]: physchem. As to conditions: pH 4.
For data set [5], the system named is C2C12 mouse myoblasts.
Data set [6] concerns PC12 rat adrenal gland pheochromocytoma cells.
The conditions of data set [7]: pH 7.4.
In data set [8] the test system is sciatic nerve. Conditions: rat, in vivo.
Data set [9] concerns sciatic nerve. Briefly: Motor nerve block, weight-bearing test. Conditions: rat, in vivo. As to the method: Motor nerve block was assessed by a weight-bearing test to determine the motor strength of the rat's hind paw. The rat was positioned with one hind paw on a digital balance and was allowed to bear its own weight. The maximum weight that the rat could bear without the ankle touching the balance was recorded, and motor block was considered achieved when the motor strength was less than half maximal. Measurements were repeated three times at each time point and the median was used for further data analysis.
Duration of sensory block were calculated as the time required for thermal latency to return to 7 seconds (halfway between the baseline and maximal latencies). The duration of motor block was defined as the time it took for the weight-bearing to return to halfway between normal and maximal block.

Data set [10] deals with sciatic nerves and surrounding tissues. As to conditions: rat, in vivo.
The conditions of data set [11]: cited from earlier work.
[12] abbreviates: payload in aromatized liposomes containing Ph-DPPC (Lipo-Ph).
Setting [13] is: first 24 h, Lipo-Ph versus Lipo.
Where [14] appears, read: payload from aromatized liposomes, 37° C.

“And” between values parts separate entries of the source, which are not always exact repeats. Equal values may be shown once. Where a name gives a salt, the structure may show the parent alone. Read-outs that look alike come from different tables or passages of the source.

Turning to “1-palmitoyl-2-(16-coumarin)palmitoyl-sn-glycero-3-phosphocholine [CM-DPPC]”, the “phase transition temperature (Tm)” value in data set [1] came out at 66.1 °C.

As for `CCCCN1CCCCC1C(=O)Nc1c(C)cccc1C` (stereo not shown) [Bup, bupivacaine hydrochloride], the “Drug loading, Lipo” value in data set [2] stood at 3.5 ± 0.7%. This molecule showed an Increase in loading in [2] (Lipo-Ph versus Lipo) of 60.0%. Also, the “Drug loading, Lipo-Ph” value in [2] (setting [12]) came out at 5.6 ± 0.8%. In [3], the “Cumulative release in first 24 h, Lipo” value was 70.7 ± 1.9%. The same molecule registered a Decrease in release in data set [3] (setting [13]) of 47.7%. In addition, the “Cumulative release in first 24 h, Lipo-Ph” value (shortened to “Cumulative release … Lipo-Ph”) in data set [3] (setting [14]) was 37.0 ± 2.7%. Moreover, the logP in [4] was -0.27.

As to `COc1cccc2c1C(=O)c1c(O)c3c(c(O)c1C2=O)C[C@@](O)(C(=O)CO)C[C@@H]3O[C@H]1C[C@H](N)[C@H](O)[C@H](C)O1` [Dox, doxorubicin hydrochloride], the “Drug loading, Lipo” value in data set [2] is listed as 0.8 ± 0.1%. In data set [2] (Lipo-Ph versus Lipo), this molecule returned an Increase in loading of 30.4%. In addition, the “Drug loading, Lipo-Ph” value in data set [2] (setting [12]) amounted to 1.1 ± 0.1%. For the same molecule, the “Cumulative release in first 24 h, Lipo” value in [3] is recorded as 26.8 ± 1.1%. The molecule also had a Decrease in release in data set [3] (setting [13]) of 34.3%. The “Cumulative release … Lipo-Ph” value in data set [3] (setting [14]) amounted to 17.6 ± 1.0%. In addition, in [4], the logP was -0.22.

With `CCCCCCCCCCCCCCCC(=O)OC[C@H](COP(=O)([O-])OCC[N+](C)(C)C)OC(=O)CCCCCCCCCCCCCCCOc1ccccc1` [Ph-DPPC, 1-palmitoyl-2-(16-phenoxy)palmitoyl-sn-glycero-3-phosphocholine], in data set [1], the “phase transition temperature (Tm)” value is 47.4 °C.

`Oc1ccccc1` [Phenol, phenol]: in [5], the “cytotoxicity, C2C12” value was “intrinsically toxic”. Besides, in data set [6], the “cytotoxicity, PC12” value is given as “intrinsically toxic”.

With `CCN(CC)c1ccc2c(-c3ccc(S(=O)(=O)O)cc3S(=O)(=O)[O-])c3ccc(=[N+](CC)CC)cc-3oc2c1` [SRho, sulforhodamine B], the “Drug loading, Lipo” value in [2] is recorded as 2.6 ± 0.3%. The Increase in loading in [2] (Lipo-Ph versus Lipo) is on record as 19.2%. Also, the “Drug loading, Lipo-Ph” value in data set [2] (setting [12]) is on record as 3.1 ± 0.2%. In data set [3], the “Cumulative release in first 24 h, Lipo” value amounted to 12.2 ± 0.5%. In data set [3] (setting [13]), the Decrease in release is 51.6%. Also, the “Cumulative release … Lipo-Ph” value in data set [3] (setting [14]) is 5.9 ± 0.7%. The “time within which free dye was released” value in data set [3] (unencapsulated SRho in the release set-up) is not above 6 h. Besides, the “log P (octanol-water partition coefficient)” value in data set [7] is −0.53.

As to tetrodotoxin [TTX], in data set [2], the “Drug loading, Lipo” value is on record as 0.11 ± 0.01%; the “Drug loading, Lipo-Ph” value is 0.13 ± 0.01%; the Increase in loading came out at 25.5%. Further, in data set [3], the “Cumulative release in first 24 h, Lipo” value came out at 17.1 ± 0.3%; the “Cumulative release … Lipo-Ph” value was found to be 11.3 ± 0.4%; the Decrease in release is on record as 34.0%; the “TTX released after 8 hours” value is on record as “More than 95%”. In [8], the “Duration of nerve block” value is 2.5 ± 0.6 h and 2.5 h; the nerve block result is on record as “did not induce detectable nerve block”; the sensory nerve block result was “no detectable block”. The “difference between the duration of sensory and motor nerve block” value in [9] was “no statistically significant difference”. In addition, in data set [10], the “Inflammation Scores, Day 4” value is 0; the “Inflammation Scores, Day 14” value is 0 (0-0); the “Myotoxicity Scores, Day 4” value stood at 0; the “Myotoxicity Scores, Day 14” value is listed as 0. Besides, the “log P (octanol-water partition coefficient)” value in data set [7] was determined as 0.13. For the same molecule, in [11], the “Log P” value was −6.2.

What is called logP is the decadic logarithm of the partition coefficient of the neutral form, usually between octanol and water. What is called Log P is the decadic logarithm of the partition coefficient of the neutral form, usually between octanol and water.
